In a melting point compilation (Tetko et al.; mined from patent text by program, amines drawn as free bases though some values may be those of a salt):

| melting point | SMILES |
| --- | --- |
| 232 to 235 °C | CCOC(=O)Nc1cccc(-c2ccc3nnc(C)n3n2)c1 |
| 30 to 32 °C | C=CCOc1cc(C)ccc1[N+](=O)[O-] |
| 290 to 295 °C | N#CC(C#N)=CNc1ccc(C2=NNC(=O)CC2)cc1 |
| 49.7 °C | CCCCc1ccc(C(=O)Oc2ccc(C=O)cc2)cc1 |
| 190 °C | Nc1cc(OCCO)nc(N)n1 |
| 114 to 115 °C | Clc1cccc(N2CCN(Cc3ccc4ccccc4c3)CC2)c1 |
| 113 to 114 °C | Nc1cccc(Cl)c1O |
| 129 to 131 °C | CN(C)S(=O)(=O)c1cccc2c1Sc1ccc(OC3CCCCO3)cc1N2CCCN1CCC(CCO)CC1 (stereo unspecified) |
| 116 to 117 °C | O=C(O)C(=O)c1ccc(O)c(Cl)c1 |
| 41.4 to 44.6 °C | Cc1cc(C(Cl)=C(Cl)Cl)cc(C(Cl)=C(Cl)Cl)c1 |
| 76 to 79 °C | CCC(=O)CCSc1cc(C(C)(C)C)c(O)c(C(C)(C)C)c1 |
| 61 to 62 °C | CCCCCCCCCCCCCCCCSCC(O)COC(c1ccccc1)(c1ccccc1)c1ccccc1 (stereo unspecified) |
| 50 to 51 °C | CCCCC/C(=C/C=C/C(=O)Oc1ccc([N+](=O)[O-])cc1)c1cccc(F)c1 |
| 83 to 84.5 °C | CN1C(=O)Cc2ccccc21 |
| 241 to 242 °C | O=C(O)c1c(-c2cccc3ccccc23)c2ccccc2n1Cc1cc2c(cc1Cl)OCO2 |
| 242 to 244 °C | Cc1cc(C(=O)O)cc(Cl)c1O |
| 138 °C | Nc1ccccc1C1CCCN(C(=O)C(F)(F)F)C1 (stereo unspecified) |
| 162 to 164 °C | CCOC(=O)CCCOc1ccc(C(=O)Nc2ccccc2Oc2ccccc2-c2nnn[nH]2)cc1 |
| 60 to 62 °C | COc1ccc(C#Cc2ccccc2)c(CC(C)=O)c1 |
| 104 to 105 °C | O=[N+]([O-])c1ccc(OCc2cccc(F)c2)cc1 |

| melting point | SMILES |
| --- | --- |
| > 300 °C | COc1ccc(-c2[nH]nc3c2C(=O)c2c(NC(=O)CN)cccc2-3)cc1 |
| 139 to 140 °C | COC(=O)CCCc1cc2cc(Cl)ccc2n1S(=O)(=O)c1ccc2c(c1)OCCN2C |
| 144 to 147 °C | O=C(NCc1ccco1)c1ccc(-c2ccc3nnn(Cc4ccc5ncccc5c4)c3n2)cc1F |
| 186 °C | COc1ccccc1-c1ccc2cnc(Nc3ccc(N4CCN(CC(N)=O)CC4)c(F)c3)nn12 |
| 65 °C | CC(=O)OC1CSC(Oc2cncc(-c3ccc(OC(C)C)c(F)c3)c2)C(OC(C)=O)C1OC(C)=O (stereo unspecified) |
| 128 to 131 °C | Cc1c(C)n(CC(F)F)c2c(OCc3ccccc3)nncc12 |
| 52 to 54 °C | O=C(CCCCCOc1cc(-c2ccccc2)c2ccccc2n1)N1CCCC1 |
| 70 to 71 °C | Cc1cc2ccc(Cl)c(Cl)c2[nH]1 |
| 132 to 133 °C | O=[N+]([O-])c1ccc(F)c2ncccc12 |
| 214 to 215 °C | CC(=N)Nc1cccc(CNO)c1 |
| 82 to 84 °C | CCCCCCCCCCCCc1nnc(C(C(=O)Nc2c(C(C)C)cccc2C(C)C)c2ccccc2)o1 (stereo unspecified) |
| > 300 °C | O=c1c2ccc(Cl)cc2[nH]c2c(O)nn(Cc3cc4ccccc4s3)c(=O)c12 |
| 225 to 226 °C | FCC(F)(F)Sc1nc(-c2ccccc2)c(-c2ccccc2)[nH]1 |
| 173 to 174 °C | CN(c1cccc2cc(C3=NCC(CC(=O)N4CCOCC4)S3)[nH]c12)S(=O)(=O)c1cccs1 (stereo unspecified) |
| 105 to 107 °C | COC(=O)C1(C(=O)Nc2ccc(Br)cc2C)C2CCCCC21 (stereo unspecified) |
| 143 to 145 °C | Cc1ccc2c(c1)CC(=S)N2C |
| 154 to 156 °C | O=[N+]([O-])c1ccc2c(-n3ccnc3)nnc(NCc3ccc4c(c3)OCO4)c2c1 |
| 209 to 210 °C | O=c1c2cc(F)c(Cl)nc2n(Cc2ccccc2)c(=O)n1OCc1ccccc1 |
| 127 to 129 °C | COc1cccc(C(=O)CCCN2CCC(O)(c3ccc(Cl)cc3)CC2)c1 |

| SMILES | melting point |
| --- | --- |
| CCOP(=O)(OCC)ON=C1C=CC(=C(C#N)c2ccccc2C)S1 | 90 to 91 °C |
| O=c1c2c(Cl)cccc2nc(CSc2ncnc3[nH]cnc23)n1-c1ccccc1Cl | 234 °C |
